# Laboratory results taken from patent US6835736B1, “Discorhabdin compounds and methods of use” (Harbor Branch Oceanographic Institution, Inc., priority 2003, dated 2004).
# Key:
# Assay type in all cases: cell-based
# NCI/ADR cells = test: Antiproliferative MTT assay, NCI/ADR cells; settings: Homo sapiens, NCI/ADR-RES
# Procedure: (§1) Extracts and compounds were analyzed as to their effects on proliferation of A549 human adenocarcinoma, PANC-1 human pancreatic and P388 murine leukemia cell lines. P388 and NCI/ADR cells were obtained from Dr. R. Camalier, National Cancer Institute, Bethesda, Md., and A549 and PANC-1 cells were obtained from American Type Culture Collection, Rockville, Md. All cell lines were maintained in Roswell Park Memorial Institute (RPMI) medium 1640 supplemented with 10% fetal bovine sernm. All cell lines are cultured in plastic tissue culture flasks and kept in an incubator at 37° C. in humidified air containing 5% CO2. Prior to testing, antibiotic-free stock cultures of each of the cell lines were subcultured to […] by dilution in fresh growth medium at 2 to 3 day intervals.
# (§2) To quantitate the effects of pure compounds on cell proliferation and resulting IC50 values, 75 μl of warm growth media containing 5 mg/ml MTT is added to each well, cultures returned to the incubator, and left undisturbed for 90 minutes. To spectrophotometrically quantitate formation of reduced formazan, plates are centrifuged (900×g, 5 minutes), culture fluids removed by aspiration, and 200 μl of acidified isopropanol (2 ml concentrated HCl/liter isopropanol) added per well. The absorbance of the resulting solutions is measured at 570 nm with a plate reader (TECAN Spectra II Plate Reader, TECAN U.S., Research Triangle Park, NC). […]
# [1] = test system: A549 human adenocarcinoma cell line; test: Antiproliferative MTT assay, A549 cells; settings: additional 48 hour exposure
# Procedure: as §1
# (§3) To assess the antiproliferative effects of extracts and compounds against the P388 cell line, 200 μl cultures (96-well tissue culture plates, Nunc, Denmark) are established at 1×10^5 cells/ml in drug-free medium or medium containing the test agent at 10.0, 1.0, 0.10 and 0.010 μg/ml. Solvent for all dilutions ethanol. All experimental cultures are initiated in medium containing gentamycin su fate (50 μg/ml; Schering Corporation, Kenilworth, N.J.). After 48-h exposures, P388 cells are enumerated using 3-[4,5-dimethylthiazol-2-yl]-2,5-diphenyltetrazolium bromide (MTT) as described below (M. C. Alley et al., 1988, Cancer Res. 48:589.
# (§4) Similar procedures are utilized for A549 and PANC-1 cells which require an additional 48 hour exposure prior to MTT addition. Results are expressed as percent inhibition compared to the negative (no drug) control. Positive drug controls are included to monitor drug sensitivity of each of the cell lines. These include varying dilutions of 5-fluorouracil and adriamycin.
# (§5) To quantitate the effects of pure compounds on cell proliferation and resulting IC50 values, 75 μl of warm growth media containing 5 mg/ml MTT is added to each well, cultures returned to the incubator, and left undisturbed for 90 minutes. […]
# [2] = test system: P388 murine leukemia cell line; test: Antiproliferative MTT assay, P388 cells; settings: Mus musculus, 48-h exposure, read-out: Activity (IC50) P-388
# Procedure: as §1, §3, §2
# [3] = test system: PANC-1 human pancreatic cell line; test: Antiproliferative MTT assay, PANC-1 cells; settings: additional 48 hour exposure
# Procedure: as §1, §3, §4, §5
smiles,measurement,setting,value
CSC1=CC(=O)C(Br)=CC12C=CNC1=C2c2nccc3cn(C)c(c23)C1=O (stereo not drawn) [Discorhabdin T],IC50,NCI/ADR cells,> 5 µg/mL
same,IC50,[1],> 5 µg/mL
same,IC50,[2],> 5 µg/mL
same,IC50,[3],0.7 µg/mL
CSC1=CC(=O)C(Br)=CC12C=CNC1=C2C2=NCCc3cn(C)c(c32)C1=O (stereo not drawn) [Discorhabdin U],IC50,NCI/ADR cells,0.22 µg/mL
same,IC50,[1],0.34 µg/mL
same,IC50,[2],0.17 µg/mL
same,IC50,[3],0.069 µg/mL
CSC1=CC(=O)C(Br)=CC12CCNC1=C2c2nccc3cn(C)c(c23)C1=O (stereo not drawn) [Discorhabdin S],IC50,NCI/ADR cells,> 5 µg/mL
same,IC50,[1],> 5 µg/mL
same,IC50,[2],3.08 µg/mL
same,IC50,[3],2.6 µg/mL
